Active and inactive are the calls of the source.
Assays:
cells [1] = type: functional, cell-based
cells [2] = type: functional, cell-based; remark: listed apart in the source
Cytochrome P450 2C9 = Cytochrome P450 2C9 (Homo sapiens, UniProt P11712)
Leucine aminopeptidase = target: T1, Leucine aminopeptidase (Plasmodium falciparum 3D7, UniProt Q8IL11); test: P. falciparum M17LAP inhibitors, primary screen, biochemical, fluorogenic H-Leu-NHMec substrate, 1536-well (AID 1619); type: functional
T1 sequence (Q8IL11 whole entry): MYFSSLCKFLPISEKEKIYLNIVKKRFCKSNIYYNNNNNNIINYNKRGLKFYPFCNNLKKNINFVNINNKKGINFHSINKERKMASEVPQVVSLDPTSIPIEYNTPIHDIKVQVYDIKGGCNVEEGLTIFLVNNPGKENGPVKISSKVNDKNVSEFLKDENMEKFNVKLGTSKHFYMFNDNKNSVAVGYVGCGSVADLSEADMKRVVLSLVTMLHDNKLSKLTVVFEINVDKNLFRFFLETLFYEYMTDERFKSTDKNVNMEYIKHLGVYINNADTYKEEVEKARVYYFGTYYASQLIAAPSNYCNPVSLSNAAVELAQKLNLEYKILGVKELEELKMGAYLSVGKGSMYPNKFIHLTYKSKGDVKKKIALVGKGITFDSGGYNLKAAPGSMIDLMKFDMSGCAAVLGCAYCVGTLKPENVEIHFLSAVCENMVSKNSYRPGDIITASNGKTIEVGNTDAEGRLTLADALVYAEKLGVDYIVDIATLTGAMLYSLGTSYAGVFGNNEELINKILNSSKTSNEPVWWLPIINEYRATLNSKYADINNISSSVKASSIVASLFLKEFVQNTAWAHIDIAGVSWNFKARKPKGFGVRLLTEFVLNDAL

[3] = Shn3 3'UTR reporter inhibitors, dose response, cell-based, Clone20 osteoblasts, firefly luciferase, cherry-picked (AID 624132); type: functional;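 further: firefly luciferase luminescence from reporter carrying the Shn3 3'UTR in osteoblasts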
[4] = HepG2 cell cytotoxicity, dose response, cytotoxicity control for Shn3 inhibitor project, CellTiter-Glo, cherry-picked (AID 624134); type: functional, cell-based
[5] = control 3'UTR Renilla luciferase suppression, dose response, counter-screen for Shn3 inhibitor project, cell-based, Clone20-Shn3RL, cherry-picked (AID 624133); type: functional
[6] = target: T2, Ubiquitin-conjugating enzyme E2 N (Homo sapiens, UniProt P61088); type: functional;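 further: Dose-response confirmation in a TR-FRET assay detecting UBC13-driven polyubiquitin chain formation, inhibition measured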
T2 sequence (P61088 whole entry): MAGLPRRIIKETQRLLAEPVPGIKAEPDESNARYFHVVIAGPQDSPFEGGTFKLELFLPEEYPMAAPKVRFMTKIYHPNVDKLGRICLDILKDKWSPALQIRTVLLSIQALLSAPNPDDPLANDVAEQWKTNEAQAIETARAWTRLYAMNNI

[7] = NIH-3T3 fibroblast cytotoxicity, dose response, cytotoxicity control, cell-based, fluorescence, Alamar Blue, secondary assay (AID 2327); type: functional;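 further: NIH-3T3 mouse fibroblasts cultured with fluconazole at 8 µg/mL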
[8] = C. albicans growth with fluconazole, confirmation, fluorescence, retest (AID 2467); type: functional, cell-based
cells [9] = type: functional
[10] = target: T3, Calpain-2 catalytic subunit (Sus scrofa, UniProt P43367); test: pig calpain II inhibitor potency, dose response, biochemical, fluorogenic peptide substrate (AID 1420); type: functional
T3 sequence (P43367 whole entry): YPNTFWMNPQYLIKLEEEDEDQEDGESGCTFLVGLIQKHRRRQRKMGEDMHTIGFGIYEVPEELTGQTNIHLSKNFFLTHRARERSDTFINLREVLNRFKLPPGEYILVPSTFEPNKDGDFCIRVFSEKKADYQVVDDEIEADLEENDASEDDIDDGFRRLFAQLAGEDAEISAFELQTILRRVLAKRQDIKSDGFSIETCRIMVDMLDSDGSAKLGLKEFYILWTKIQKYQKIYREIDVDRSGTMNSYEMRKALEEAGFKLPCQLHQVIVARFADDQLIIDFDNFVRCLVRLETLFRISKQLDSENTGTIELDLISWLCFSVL

Cytochrome P450 2C19 = Cytochrome P450 2C19 (Homo sapiens, UniProt P33261); test: Cytochrome panel assay with activity outcomes. Panel member name: p450-cyp2c19 Compounds with AC50 equal or less than 10 uM are considered active; type: functional; settings: read-out: AC50
Chain of Cytochrome P450 2C19 (P33261 whole entry): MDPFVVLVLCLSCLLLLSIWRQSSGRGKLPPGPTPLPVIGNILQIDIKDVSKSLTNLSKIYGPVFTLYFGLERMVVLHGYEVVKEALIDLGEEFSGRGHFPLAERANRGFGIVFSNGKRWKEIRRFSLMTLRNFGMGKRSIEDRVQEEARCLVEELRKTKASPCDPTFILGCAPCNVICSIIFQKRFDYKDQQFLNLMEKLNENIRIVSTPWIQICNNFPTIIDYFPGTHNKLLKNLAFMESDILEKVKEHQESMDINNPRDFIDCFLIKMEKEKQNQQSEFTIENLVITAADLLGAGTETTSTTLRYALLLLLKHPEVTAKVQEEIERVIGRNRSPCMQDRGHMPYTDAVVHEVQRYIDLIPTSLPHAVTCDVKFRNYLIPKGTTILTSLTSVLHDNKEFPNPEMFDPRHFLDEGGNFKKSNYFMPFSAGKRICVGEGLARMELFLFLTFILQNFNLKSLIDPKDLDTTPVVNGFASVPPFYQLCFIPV

[11] = HEK293 cell cytotoxicity, dose response, cytotoxicity control, plate reader, cherry-picked samples (AID 743446); type: functional, cell-based
[12] = HepG2 cell cytotoxicity, dose response, cytotoxicity control, plate reader, cherry-pick, antagonist series (AID 743416); type: functional, cell-based
[13] = LGR2 antagonists, dose response, cell-based, HEK293, CRE-luciferase reporter, cherry pick, set 2 (AID 743343); type: functional;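 further: transfected cells were stimulated with diluted bursicon conditioned medium after compound addition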
[14] = A549 cell cytotoxicity, dose response, cytotoxicity control, plate reader, cherry-pick, antagonist series (AID 743412); type: functional, cell-based
[15] = MC4R antagonists, dose response, counter-screen for LGR2 antagonist project, cell-based, plate reader, cherry pick (AID 743444); type: functional;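 further: transfected HEK 293 cells stimulated with alpha-MSH peptide; potency of inhibitors of the alpha-MSH evoked signal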
[16] = target: T4, Rac GTPase-activating protein 1 (Homo sapiens, UniProt Q9H0H5); test: MgcRacGAP GTPase-activating activity inhibitors, confirmation, biochemical, ADP Hunter fluorescence, primary and confirmatory (AID 624330); type: functional
T4 sequence (Q9H0H5 whole entry): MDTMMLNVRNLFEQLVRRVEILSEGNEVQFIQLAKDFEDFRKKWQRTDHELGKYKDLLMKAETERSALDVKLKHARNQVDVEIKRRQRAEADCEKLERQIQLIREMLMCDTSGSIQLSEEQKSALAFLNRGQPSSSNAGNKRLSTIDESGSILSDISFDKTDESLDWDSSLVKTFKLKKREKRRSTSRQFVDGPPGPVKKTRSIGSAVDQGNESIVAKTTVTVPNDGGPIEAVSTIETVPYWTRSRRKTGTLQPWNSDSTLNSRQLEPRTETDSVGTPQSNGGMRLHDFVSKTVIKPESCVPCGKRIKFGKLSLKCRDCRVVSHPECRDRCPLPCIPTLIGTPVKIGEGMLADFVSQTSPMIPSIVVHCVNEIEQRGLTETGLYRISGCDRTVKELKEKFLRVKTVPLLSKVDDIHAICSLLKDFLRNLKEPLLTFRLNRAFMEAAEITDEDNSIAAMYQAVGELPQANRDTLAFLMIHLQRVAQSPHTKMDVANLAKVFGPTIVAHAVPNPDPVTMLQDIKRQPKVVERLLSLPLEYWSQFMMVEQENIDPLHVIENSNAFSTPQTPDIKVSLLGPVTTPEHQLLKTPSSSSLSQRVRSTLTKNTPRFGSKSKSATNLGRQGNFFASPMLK

Cytochrome P450 1A2 = target: T5, Cytochrome P450 1A2 (Homo sapiens, UniProt P05177);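 further: PubChem cytochrome P450 panel assay, CYP1A2 panel member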
T5 sequence (P05177 whole entry): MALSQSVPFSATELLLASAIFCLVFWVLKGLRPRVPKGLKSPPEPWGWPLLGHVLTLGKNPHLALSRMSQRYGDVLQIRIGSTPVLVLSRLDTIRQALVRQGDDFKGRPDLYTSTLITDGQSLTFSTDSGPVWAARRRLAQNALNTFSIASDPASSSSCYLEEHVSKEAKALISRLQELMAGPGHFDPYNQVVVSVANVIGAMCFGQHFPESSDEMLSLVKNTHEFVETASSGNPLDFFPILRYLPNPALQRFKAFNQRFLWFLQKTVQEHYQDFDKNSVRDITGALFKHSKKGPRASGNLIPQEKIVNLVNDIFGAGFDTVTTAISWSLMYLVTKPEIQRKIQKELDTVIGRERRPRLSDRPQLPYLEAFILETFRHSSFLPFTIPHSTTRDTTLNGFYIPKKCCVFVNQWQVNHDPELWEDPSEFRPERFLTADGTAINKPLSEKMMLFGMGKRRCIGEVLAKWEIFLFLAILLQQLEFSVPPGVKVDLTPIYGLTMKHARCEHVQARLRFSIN

Chain of Cytochrome P450 2C9 (P11712 whole entry): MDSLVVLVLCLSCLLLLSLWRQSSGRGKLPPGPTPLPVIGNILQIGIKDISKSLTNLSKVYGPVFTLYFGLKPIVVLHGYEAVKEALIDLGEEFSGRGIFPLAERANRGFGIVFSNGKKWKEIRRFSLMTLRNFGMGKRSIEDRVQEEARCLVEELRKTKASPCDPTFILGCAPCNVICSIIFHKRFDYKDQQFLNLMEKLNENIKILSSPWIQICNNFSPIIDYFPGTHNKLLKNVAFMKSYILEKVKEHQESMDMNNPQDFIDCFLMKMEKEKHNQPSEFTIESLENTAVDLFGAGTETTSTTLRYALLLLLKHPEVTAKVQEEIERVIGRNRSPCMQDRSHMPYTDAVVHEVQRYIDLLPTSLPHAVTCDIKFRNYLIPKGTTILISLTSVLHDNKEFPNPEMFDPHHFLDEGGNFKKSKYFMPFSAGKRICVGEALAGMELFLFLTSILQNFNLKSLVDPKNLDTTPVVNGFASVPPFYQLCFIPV

## Cc1nn(C)cc1S(=O)(=O)NCc1ccc2c(c1)OCO2
Cells [1]
  EC50: > 350 µM (not active)
Cells [2]
  EC50: > 350 µM (not active)

## N#CCCn1c(=O)c(-c2ccc(Cl)cc2)nc2cnc(N3CCOCC3)nc21
Cytochrome P450 2C9
  AC50: inconclusive

## CCc1ccc(C(=O)CSc2n[nH]c(C)n2)cc1
Leucine aminopeptidase
  IC50: 63.4 µM (active)

## CC(=O)Nc1ccc(Nc2nc(C)c([N+](=O)[O-])c(Nc3ccc(NC(C)=O)cc3)n2)cc1
Cells [1]
  EC50: > 350 µM (not active)
Cells [2]
  EC50: > 350 µM (not active)

## CCC(=O)c1ccc(OCc2ccc(C(=O)c3ccccc3)cc2)cc1
[3]
  AC50: 3.29 µM (active)
[4]
  AC50: 26.3 µM (active)
[5]
  AC50: 5.86 µM (active)

## COc1ccc(CN2C(=O)c3cccc4cccc2c34)cc1F
[6]
  IC50: > 20 µM (inactive)

## CC(C)=NOC(=O)c1c(C)noc1-c1snnc1C
Cells [1]
  EC50: > 350 µM (not active)
Cells [2]
  EC50: > 350 µM (not active)

## O=C(NCC(=O)N(Cc1ccco1)C(C(=O)NC1CCCCC1)c1cccnc1)c1cccs1 (centres undefined)
Cells [1]
  EC50: > 350 µM (not active)
Cells [2]
  EC50: > 350 µM (not active)

## CC(=O)c1cc(C#N)c(N2CCCC2)nc1C
[7]
  EC50: > 160 µM (inactive)
[8]
  EC50: > 38 µM (not active)

## Cc1sc(NC(=O)C2CC=CCC2C(=O)O)c(C(=O)OC(C)C)c1C (centres undefined)
Leucine aminopeptidase
  IC50: 24.1 µM (active)

## CCCN1C(=O)S/C(=C\c2ccc(N3CCOCC3)o2)C1=O
[3]
  AC50: 6.37 µM (active)
[4]
  AC50: > 70 µM (inactive)
Cells [9]
  IC50: 21.9 µM (active)
[5]
  AC50: 25.8 µM (active)

## O=C(c1ccc(Cl)cc1Cl)N1CCC(c2nc(O)c3nnn(Cc4ccco4)c3n2)CC1
[10]
  IC50: > 50 µM (not active)

## CCOc1ccc(Nc2nc(Cc3nnc(SCC(=O)O)o3)cs2)cc1
Leucine aminopeptidase
  IC50: 7.08 µM (active)

## COc1ccc(C(=O)N(CN2CCCC2=O)c2ccc(C)cc2)cc1
[7]
  EC50: 66 µM (active)
[8]
  EC50: > 38 µM (not active)

## COc1ccccc1[C@@H]1C(c2cccc(C)c2)=NN(c2ccccc2)[C@H]1C(=O)N1CCOC1=O
[6]
  IC50: > 20 µM (inactive)

## CCCCN(CC)CCNC(=O)CNC(=O)Cn1ccc2ccccc2c1=O
[10]
  IC50: 46.5 µM (not active)

## OC1(c2cn(Cc3ccccc3)nn2)CCCCC1
Leucine aminopeptidase
  IC50: 61.5 µM (active)

## OCc1cc(O)c(OCc2ccccc2)cn1
Cells [1]
  EC50: > 350 µM (not active)
Cells [2]
  EC50: > 350 µM (not active)

## O=C(O)c1cccc(CSc2nc(-c3ccccc3)cc(C(F)(F)F)n2)c1
[7]
  EC50: > 150 µM (inactive)
[8]
  EC50: 5.9 µM (active)

## O=C1c2cccc3cccc(c23)C(=O)N1CCc1ccccc1
[6]
  IC50: > 20 µM (inactive)

## CC(=O)Nc1ccc(Nc2ccc(S(=O)(=O)C(F)(F)F)cc2[N+](=O)[O-])cc1
[10]
  IC50: 20 µM (not active)

## CCN1C(=O)c2cccc3c(NC(=O)c4ccc(S(=O)(=O)N(C)C)cc4)ccc1c23
[6]
  IC50: > 20 µM (inactive)

## Cc1c(O)c([S+]([O-])c2ccccc2)c(=O)n(-c2ccccc2)c1-c1ccccc1 (centres undefined)
Leucine aminopeptidase
  IC50: 15.1 µM (active)

## CCCCN(C(=O)c1c(C)[nH]c(C(=O)OCC)c1C)c1ccccc1
Cells [1]
  EC50: > 350 µM (not active)
Cells [2]
  EC50: > 350 µM (not active)

## Cc1ccc(C(=O)Nc2ccc3c(c2)nc(CCNC(=O)c2ccco2)n3C)cc1
Cells [1]
  EC50: > 350 µM (not active)
Cells [2]
  EC50: > 350 µM (not active)

## Cn1cc(CC(=O)N2CCN(c3ccc(Cl)cc3)CC2)c2ccccc21
Cells [1]
  EC50: > 350 µM (not active)
Cells [2]
  EC50: > 350 µM (not active)

## Cn1c(=O)c2c(ncn2Cc2ccc(Cl)cc2)n(C)c1=O
[6]
  IC50: > 20 µM (inactive)

## CCCCN1CCC(n2c(=O)[nH]c3ccccc32)CC1
Cytochrome P450 2C9
  AC50: inconclusive

## C[C@H](NC(=O)/C(C#N)=C/c1ccc(O)c(O)c1)c1ccccc1
Cytochrome P450 2C9
  AC50: inconclusive
Cytochrome P450 2C19
  AC50: 31.6 µM (inconclusive)

## Cc1ccc(S(=O)(=O)Nc2ccc3c(c2)CC(=O)N([C@H](C)CO)C[C@@H](C)[C@H](CN(C)Cc2ccc(C(F)(F)F)cc2)O3)cc1
[11]
  AC50: 17.8 µM (active)
[12]
  AC50: 10.5 µM (active)
[13]
  AC50: 21.6 µM (active)
[14]
  AC50: 8.46 µM (active)
[15]
  AC50: 14.1 µM (active)

## C/C(=N\NC(=O)CSCc1ccccc1Cl)c1cc(O)ccc1O
[7]
  EC50: > 160 µM (inactive)
[16]
  IC50: 24.3 µM (active)
[8]
  EC50: > 38 µM (not active)

## CCSc1nnc(-c2ccccc2/N=C/c2c(C)nn(-c3ccccc3)c2O)c(O)n1
Leucine aminopeptidase
  IC50: 39.6 µM (active)

## C=CCNC(=S)N/N=C/c1ccc(C)s1
[10]
  IC50: 27.1 µM (not active)

## CC(C)NC(=S)N/N=C/C1=CCC2CC1C2(C)C (centres undefined)
[10]
  IC50: 49 µM (not active)

## Cc1ccc(C(=O)O/N=C/c2c(Cl)n(C)c3ccccc23)cc1
Cytochrome P450 1A2
  AC50: 1.12 µM (inconclusive)
Cytochrome P450 2C9
  AC50: inconclusive

Reference: ChEMBL document CHEMBL1201862, “PubChem BioAssay data set” (2004)
